Experimental data taken from patent US10912771B1, “Methods for the administration of certain VMAT2 inhibitors” (Neurocrine Biosciences, Inc., priority 2017, dated 2021).
Entries after “also recorded” stand apart in the source; their conditions may differ. Where two headings read alike, the source gives them in different places. Blank lines part the entries; values can stand above or below the compound they belong to.

How the values were obtained:
[1] = Phase 1 open-label one-sequence crossover drug-interaction study: plasma pharmacokinetics of NBI-98854 and metabolites with and without rifampin; assay type: in vivo, human; details: for half-life: read-out: Mean t1/2 (converted); for AUC(0-inf) / Cmax / MRT / AUC(0-t) / Tlag / t1/2: Mean (SD); for AUC(0-t): plasma
Procedure: (§1) Subjects received a single dose of 80 mg valbenazine tosylate on Days 1 and 11 between 0800 and 1000 hours. In addition, subjects received 600 mg rifampin (300 mg×2 capsules) once daily on Days 5 (after collection of the 96-hour PK sample) through 14 between 0830 and 1030 hours. Subjects were required to fast overnight before receiving the study drugs (valbenazine tosylate and rifampin). Subjects were discharged from the study center on Day 15 (final study day or upon early termination) after all safety evaluations and study assessments had been completed.
Safety was assessed throughout the study.
NBI-98854 40 mg capsules were administered orally. The dose of NBI-98854 was based on ditosylate salt (dose expressed as free base). Subjects received a single dose of NBI-98854 80 mg (as two 40 mg capsules) twice during the study, on Days 1 and 11.
Rifampin 300 mg capsules were administered orally. Subjects received a single dose of rifampin 600 mg (as two 300 mg capsules) on Days 5 (after collection of the 96 hour NBI-98854 PK sample) through 14 between 0830 and 1030 hours.
The following plasma PK parameters were calculated only for NBI-98854: • Apparent systemic clearance after oral administration (CL/F) • Apparent volume of distribution during the terminal phase after oral administration (Vz/F)
The last significant figure was rounded up if the digit to the right of it was >5, and was rounded down if the digit to the right of it was […].
The last significant figure was rounded up if the digit to the right of it was ≥5, and was rounded down if the digit to the right of it was ≤4.
(§2) An analysis of variance (ANOVA) model was used to compare AUC0-∞ and Cmax for NBI-98854 administered with rifampin (“test”) versus AUC0-∞ and Cmax for NBI-98854 alone (“reference”). The PK parameters for metabolites of NBI-98854 and rifampin were also evaluated. Safety data were summarized using descriptive statistics.

VMAT2 = molecular target: T1, VMAT2 (Homo sapiens, UniProt Q05940); experiment: Inhibition of [3H]-DHTBZ binding to human platelets
T1 construct: from tissue; host or cells: human platelets (homogenates)
T1 sequence (Q05940 whole entry): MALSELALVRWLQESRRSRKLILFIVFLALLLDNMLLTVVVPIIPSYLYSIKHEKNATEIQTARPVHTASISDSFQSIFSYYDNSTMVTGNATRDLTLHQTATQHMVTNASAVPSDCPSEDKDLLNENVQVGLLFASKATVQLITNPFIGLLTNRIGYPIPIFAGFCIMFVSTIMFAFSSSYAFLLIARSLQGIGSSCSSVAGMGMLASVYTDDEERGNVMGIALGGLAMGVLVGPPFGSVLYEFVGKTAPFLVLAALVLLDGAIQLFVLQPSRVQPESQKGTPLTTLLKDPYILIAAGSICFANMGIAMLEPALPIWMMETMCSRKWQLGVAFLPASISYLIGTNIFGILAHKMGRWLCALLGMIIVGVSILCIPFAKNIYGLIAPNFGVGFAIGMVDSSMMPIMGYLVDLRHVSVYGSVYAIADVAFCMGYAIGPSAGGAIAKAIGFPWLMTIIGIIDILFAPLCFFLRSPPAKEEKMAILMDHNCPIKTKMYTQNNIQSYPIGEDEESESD

human VMAT1 transporter = molecular target: T2, human VMAT1 transporter (Homo sapiens, UniProt P54219); experiment: Uptake in cells expressing VMAT1; assay type: cell-based; details: TBZ, VBZ and metabolites at concentrations up to 10 μM
T2 construct: expressed in transfected cells
T2 sequence (P54219 1-525): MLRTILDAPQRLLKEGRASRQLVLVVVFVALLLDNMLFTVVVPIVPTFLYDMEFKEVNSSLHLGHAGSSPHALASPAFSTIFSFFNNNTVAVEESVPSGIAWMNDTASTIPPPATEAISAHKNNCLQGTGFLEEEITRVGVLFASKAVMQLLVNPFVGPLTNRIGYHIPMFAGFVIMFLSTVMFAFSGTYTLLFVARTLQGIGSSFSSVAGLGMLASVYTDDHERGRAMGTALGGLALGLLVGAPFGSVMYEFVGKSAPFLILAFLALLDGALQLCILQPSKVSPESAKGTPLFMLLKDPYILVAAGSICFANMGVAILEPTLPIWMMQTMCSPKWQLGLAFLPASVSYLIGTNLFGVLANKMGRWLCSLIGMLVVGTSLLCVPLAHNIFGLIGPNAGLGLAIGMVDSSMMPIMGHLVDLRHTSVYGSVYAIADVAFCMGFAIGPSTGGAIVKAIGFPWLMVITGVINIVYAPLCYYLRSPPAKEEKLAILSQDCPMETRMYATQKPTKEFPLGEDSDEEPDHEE

[2] = tested on: more than 80 targets (GPCRs, cell-surface monoamine transporters, ion channels including HERG); experiment: Cerep multi-target activity screen; details: receptors, monoamine transporters, and ion channels
[3] = Phase 1 drug-interaction study: safety, treatment-emergent adverse events; assay type: in vivo, human; details: Safety Analysis Set, healthy subjects, by treatment period
Procedure: as §1, §2

Serotonin 5-HT7 = Serotonin 5-HT7 (Homo sapiens, UniProt P34969); experiment: Cerep screen, Serotonin 5-HT7; details: 1 or 10 μM final concentration; n=2
Chain of Serotonin 5-HT7 (P34969 whole entry): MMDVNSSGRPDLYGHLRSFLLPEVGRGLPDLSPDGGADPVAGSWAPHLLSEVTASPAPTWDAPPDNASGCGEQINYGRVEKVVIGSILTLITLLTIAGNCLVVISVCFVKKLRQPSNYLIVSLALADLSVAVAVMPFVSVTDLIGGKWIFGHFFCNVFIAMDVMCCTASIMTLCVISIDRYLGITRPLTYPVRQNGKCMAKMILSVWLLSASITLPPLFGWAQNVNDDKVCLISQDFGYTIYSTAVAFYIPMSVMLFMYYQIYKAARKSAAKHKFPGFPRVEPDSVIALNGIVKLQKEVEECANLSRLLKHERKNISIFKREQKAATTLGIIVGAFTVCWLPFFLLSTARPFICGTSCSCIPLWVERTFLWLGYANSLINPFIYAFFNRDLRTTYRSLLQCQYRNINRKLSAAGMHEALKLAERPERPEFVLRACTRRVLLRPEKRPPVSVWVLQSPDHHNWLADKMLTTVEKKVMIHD

Serotonin 5-HT1A = molecular target: T3, Serotonin 5-HT1A (Homo sapiens, UniProt P08908); experiment: Cerep screen, Serotonin 5-HT1A; details: 1 or 10 μM final concentration; n=2
T3 sequence (P08908 1-422): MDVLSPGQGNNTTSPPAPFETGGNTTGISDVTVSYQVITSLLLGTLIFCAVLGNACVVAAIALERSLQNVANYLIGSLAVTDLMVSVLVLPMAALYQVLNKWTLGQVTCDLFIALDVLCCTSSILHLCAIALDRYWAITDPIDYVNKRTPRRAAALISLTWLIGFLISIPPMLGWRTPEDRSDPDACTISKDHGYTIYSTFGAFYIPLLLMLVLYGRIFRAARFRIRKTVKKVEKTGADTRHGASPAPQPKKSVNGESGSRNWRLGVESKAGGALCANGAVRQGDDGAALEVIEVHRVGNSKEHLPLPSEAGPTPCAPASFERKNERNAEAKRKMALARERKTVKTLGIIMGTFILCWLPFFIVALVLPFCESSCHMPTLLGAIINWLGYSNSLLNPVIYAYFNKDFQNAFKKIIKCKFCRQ

[4] = Ptosis, in vivo surrogate measure of pharmacological effect
[5] = both sexes, human, oral, plasma metabolite NBI-136110, NBI-98854 80 mg + rifampin 600 mg, N = 11
[6] = both sexes, human, oral, plasma metabolite NBI-136110, NBI-98854 80 mg alone, N = 11
[7] = plasma metabolite NBI-136110, NBI-98854 80 mg + rifampin 600 mg, N = 11
[8] = plasma metabolite NBI-136110, NBI-98854 80 mg alone, N = 11

half-life ([1]; both sexes, human, oral, 80 mg, plasma analyte, NBI-98854 alone): 27 h
Tmax ([1]; both sexes, human, oral, 80 mg, plasma analyte, NBI-98854 alone, read-out: Median tmax): 3 h
half-life ([1]; both sexes, human, oral, plasma analyte, NBI-98854 administered with rifampin): 12 h
Tmax ([1]; both sexes, human, oral, plasma analyte, NBI-98854 in combination with rifampin vs NBI-98854 alone, read-out: Median tmax shorter): 1.5 h
AUC(0-inf) [1, 5]: 663 ng·h/mL
Cmax [1, 5]: 81.5 ng/mL
MRT [1, 5]: 12 h
AUC(0-inf) [1, 6]: 2080 ng·h/mL
Cmax [1, 6]: 59.8 ng/mL
MRT [1, 6]: 39 h
AUC(0-t) ([1]; both sexes, human, oral, 80 mg, plasma metabolite NBI-136110, NBI-98854 80 mg alone, N = 11, read-out: AUC0-24): 963 ng·h/mL
AUC(0-t) ([1]; both sexes, human, oral, 80 mg, plasma metabolite NBI-136110, NBI-98854 80 mg alone, N = 11, read-out: AUC0-tlast): 1890 ng·h/mL
AUC(0-t) ([1]; both sexes, human, oral, plasma metabolite NBI-136110, NBI-98854 80 mg + rifampin 600 mg, N = 11, read-out: AUC0-24): 554 ng·h/mL
AUC(0-t) ([1]; both sexes, human, oral, plasma metabolite NBI-136110, NBI-98854 80 mg + rifampin 600 mg, N = 11, read-out: AUC0-tlast): 658 ng·h/mL
Mean t1/2 shorter ([1]; plasma analyte, NBI-98854 in combination with rifampin vs NBI-98854 alone): approximately 40%
decrease in AUC0-∞ ([1]; plasma analyte, NBI-98854 plus rifampin compared with NBI-98854 alone): approximately 70%
Tlag [1, 7]: 0.16 (0.13) hr
t1/2 [1, 7]: 12 (3.0) hr
Tmax ([1]; plasma metabolite NBI-136110, NBI-98854 80 mg + rifampin 600 mg, N = 11, Median (min, max)): 1.5 (0.75, 2.1) hr
Tlag [1, 8]: 0.23 (0.14) hr
t1/2 [1, 8]: 27 (6.7) hr
Tmax ([1]; plasma metabolite NBI-136110, NBI-98854 80 mg alone, N = 11, Median (min, max)): 3.0 (2.0, 8.0) hr
Affinity Relative to R,R,R-DHTBZ (VMAT2): 67
pKi mean (SEM) (VMAT2; n=4): 6.65 (0.04)
Structure (SMILES): COc1cc2c(cc1OC)[C@H]1C[C@@H](OC(=O)[C@@H](N)C(C)(C)O)[C@H](CC(C)C)CN1CC2 [NBI-136110]
inhibition of uptake through VMAT1 (human VMAT1 transporter): no significant inhibitory activity; also recorded: no significant effect
affinity for more than 80 binding sites [2]: little to no affinity

Structure (SMILES): CO[C@H]1/C=C/O[C@@]2(C)Oc3c(C)c(O)c4c(O)c(c(/C=N/N5CCN(C)CC5)c(O)c4c3C2=O)NC(=O)/C(C)=C\C=C\[C@H](C)[C@H](O)[C@@H](C)[C@@H](O)[C@@H](C)[C@H](OC(C)=O)[C@@H]1C [Rifampin, reference compound]
Subjects who experienced a TEAE: Overall [3]: 12 (100) n (%)
TEAE: Abdominal pain [3]: 0 n (%)
TEAE: Abdominal pain upper [3]: 1 (8.3) n (%)
TEAE: Arthropod bite [3]: 0 n (%)
TEAE: Chromaturia [3]: 12 (100) n (%)
TEAE: Headache [3]: 0 n (%)
TEAE: Hypoaesthesia [3]: 0 n (%)
TEAE: Non-cardiac chest pain [3]: 1 (8.3) n (%)
TEAE: Paraesthesia [3]: 1 (8.3) n (%)
TEAE: Vessel puncture site haemorrhage [3]: 0 n (%)
TEAE: Chromaturia ([3]; listed as rifampin): 12 n (%)

Structure (SMILES): COc1cc2c(cc1OC)[C@H]1C[C@H](O)[C@H](CC(C)C)CN1CC2 [S,R,R-DHTBZ, reference compound]
percent of control specific binding, Serotonin 5-HT7 (Serotonin 5-HT7): 80%
percent of control specific binding, Serotonin 5-HT1A (Serotonin 5-HT1A): 69%

Structure (SMILES): COc1cc2c(cc1OC)C1CC(=O)C(CC(C)C)CN1CC2 (stereo not drawn) [TBZ, reference compound]
inhibition of uptake through VMAT1 (human VMAT1 transporter): no significant inhibitory activity; also recorded: no significant effect
induction of ptosis [4]: induced ptosis in an equivalent manner

inhibition of uptake through VMAT1 (human VMAT1 transporter): substantially inhibited uptake
Structure (SMILES): COC(=O)[C@H]1[C@H]2C[C@@H]3c4[nH]c5cc(OC)ccc5c4CCN3C[C@H]2C[C@@H](OC(=O)c2cc(OC)c(OC)c(OC)c2)[C@@H]1OC [reserpine, reference compound]
